Test results reported in patent US20220154296A1, “USE OF ANTI-PD-1 ANTIBODY IN PREPARATION OF MEDICAMENT FOR TREATING SOLID TUMORS” (Shanghai Junshi Biosciences Co., Ltd., priority 2019, published 2022).

B1: SHR-1210: anti-PD-1 antibody SHR-1210, in clinical stage (antibody, chains of the INN, looked up, V domains shown)
VH: EVQLVESGGGLVQPGGSLRLSCAASGFTFSSYMMSWVRQAPGKGLEWVATISGGGANTYYPDSVKGRFTISRDNAKNSLYLQMNSLRAEDTAVYYCARQLYYFDYWGQGTTVTVSS
VL: DIQMTQSPSSLSASVGDRVTITCLASQTIGTWLTWYQQKPGKAPKLLIYTATSLADGVPSRFSGSGSGTDFTLTISSLQPEDFATYYCQQVYSIPWTFGGGTKVEIK

How the values were obtained:
CT-26 cells = assay: Inhibitory effect on tumor growth in CT-26 cell-transplanted B-hPD-1 mice; format: in vivo
Description: CT-26 cells were seeded subcutaneously on the right side of hPD-1 humanized female mice at a concentration of 2.5×10^5 cells/0.1 mL, and the mice were randomly grouped by tumor volume when tumors grew to about 93 mm^3 with 7 mice per group, for a total of 4 groups:
G1: Anti-KLH hIgG4 (1 mg/kg) negative control group;
G3: palbociclib (100 mg/kg);
The experiment was ended 11 days after the first administration. Tumor volume and body weight of mice were measured and recorded twice a week. At the end of the experiment, animals were euthanized and tumor growth inhibition (TGITv%) was calculated.

[1] = test system: chemotherapy-refractory ESCC; details: chemotherapy-refractory ESCC patients in China; cited from earlier work

Molecule	TGI (%) (CT-26 cells; 11 days after the first administration, toripalimab 1 mg/kg i.p., palbociclib 100 mg/kg orally)	Tumor volume 11 days after the first administration (CT-26 cells; mean ± standard error, toripalimab 1 mg/kg i.p. twice a week, palbociclib 100 mg/kg orally once a day, 7 mice per group) [mm^3]	Anti-tumor activity [1]	Safety [1]
CC(=O)c1c(C)c2cnc(Nc3ccc(N4CCNCC4)cn3)nc2n(C2CCCC2)c1=O [palbociclib, reference compound]	44.8	1550 ± 189	–	–
B1	–	–	effective anti-tumor activity	controllable safety
